Assay results published in patent US4835160A, “Derivatives of pyridoindole, having anti-tumor properties” (Sanofi, priority 1986, dated 1989).
“And” between values parts separate entries of the source, which are not always exact repeats. Equal entries are not always repeated. Structures can show the parent of a compound that is named as a salt.

Assays:
[1] = test system: leukemia tumour line L 1210; experiment: In vitro cytotoxic activity on leukemia tumour line L 1210; type: cell-based; conditions: Mus musculus, L1210, 48 h, L 1210, 48 hours contact, 37° C.; read-out: I D 50 (concentration which inhibits the proliferation of the cells by 50%)
Method: (1) In vitro: ([…] et al., Chem. Biol. Interaction, 1979, 25, 45-58). The cytotoxic activity of the compounds of the invention has been evaluated by in vitro tests. These tests consist of adding increasing concentrations of the compound under test to a cellular culture of the leukemia tumour line L 1210 in an exponential phase of growth. The cellules are incubated at 37° C. in a CO2 incubator and counted every 24 hours. The calculation of the I D 50 (concentration of the product, expressed in 1^-1 micromole, which inhibits the proliferation of the cells by 50%) is made after 48 hours contact.

[2] = test system: reticulosarcoma M5-M5076; experiment: Test for reticulosarcoma M5-M5076; type: in vivo, BDF1 hybrid mice; conditions: 160 mg/kg IP, D1,5,9,13,17
Method: (§1) The antitumour activity was tested in vivo on various tumours inoculated in various ways according to the following general protocol:
(§2) All the male or female mice are inoculated on day D0 with a known quantity of viable tumour cells for ascitic tumours or with a known tumour fragment for solid tumours.
(§3) They are then distributed into various groups. Each group, corresponding to the animals treated by the product under test, is made up of 10 mice. The product under test is dissolved in distilled water and it is administered n times (Dx-Dy), n, y, and x varying according to the protocol chosen, at the rate of 0.1 ml of solution per 10 g by weight of mice treated and at specific doses for each protocol.
(§4) The "negative control" group, corresponding to the animals which are not treated by the product, contains 2√N animals, N being equal to or greater than the total number of mice treated by the product in the same experiment.
(§5) Finally, the tests can also be carried out at the same time as the study of a group called "positive control", of ten animals, which is treated by a molecule, known for its antitumour activity and which can vary according to the protocol chosen, in the same conditions as the groups treated by the product under test.
(§6) The antitumour activity is evaluated, in the case of ascitic tumours, by considering the increase in the survival time of the animals treated in comparison to that of the animals in the "negative control" group, according to the formula: [formula]
(§7) Also, a product is considered as toxic at the dose studied when this T/C value is equal to or less than 85%. In addition, a product is also considered as toxic at the dose studied when the weight variation, expressed in grams and calculated by the formula: […]
The tests are carried out with BDF1 hybrid mice inoculated by intraperitoneal route with 10^6 cells of the M5-M5076 line. The compound under test is administered 5 times successively in sequence (D1,5,9,13,17) by intraperitoneal route. The positive control for the test is cyclophosphamide administered in the same conditions. The number of surviving animals is evaluated on day D75.

[3] = test system: leukemia L 1210; experiment: Test for leukemia L 1210, IP/IP, D1-D5; type: in vivo, CDF1 hybrid mice; conditions: 20 mg/kg IP
Method: as §1, §2, §3, §4, §5, §6, §7
(c) Test for leukemia L 1210, IP/IP, D-5 (GERAN et al., Cancer cheomother.,1972, 2, 07-57).
The tests are carried out with CDF1 hybrid mice inoculated by intraperitoneal route with 10^5 leukemia cells from the L 1210 line. The compound under test is administered for 5 days (D1-D5) by intraperitoneal route. The positive control for the test is 5-fluorouracile administered in the same conditions. The number of surviving animals is evaluated on day D60.

[4] = test system: leukemia P388; experiment: Test for leukemia P388, IP/IP, D1; type: in vivo, CDF1 hybrid mice; conditions: 200 mg/kg IP
Method: as §1, §2, §3, §4, §5, §6, §7
(§8) The tests are carried out with CDF1 hybrid mice inoculated by intraperitoneal route with 10^6 leukemia cells from the P 388 line. The compound under test is administered for 5 successive days (D1-D5) by intraperitoneal route. The positive control for the test is 5-fluorouracile which is administered in the same conditions. The number of surviving animals is evaluated on day D30.
(b) Test for Leukemia P388, IP/IP, D1 (GERAN et al. Cancer chemother., 1972, 2, 07-57).
The test is carried out according to the preceding protocol, the compound under test being administered only on day D1.

[5] = test system: leukemia P 388; experiment: Test of leukemia P 388; IP/IP, D1-5; type: in vivo, CDF1 hybrid mice; conditions: D1-D5; for Number of survivors: day D30; for T/C %: survival time
Method: (2) In vivo: (GERAN et al., Cancer Chemother., 1972, 2, 07-57):
as §1, §2, §3, §4, §5, §6
The criterion for activity varies according to the protocol.
as §7
"Average weight of the group measured on day 5--Average weight of the same group measured on day 1"
is equal to or less than 4 g.
(a) Test of lelukemia P 388; IP/IP, D1-5 (GERAN et al., Cancer Chemother., 1972, 2, 07-57).
as §8

[6] = test system: melanoma B 16; experiment: Test for melanoma B 16; type: in vivo, BDF1 hybrid mice; conditions: 0.5 mg/kg IP, D1-D9
Method: as §1, §2, §3, §4, §5, §6, §7
(d) Test for melanoma B 16 (GERAN et al., Cancer Chemother., 1972, 2, 07-75).
The tests are carried out with BDF1 hybrid mice inoculated by intraperitoneal route with 0.5 ml of a homogenate of melanoma B 16 made up from 1 g of tumour in 10 ml of physiological serum. The compound under test is administered for 9 days (D1-D9) by intraperitoneal route. The positive control for the test is Cis-Platine administered in the same conditions. The number of surviving animals is evaluated on day D60.

CCN(CC)CCCNc1ncc(C)c2c1c1cc(OC)ccc1n2C [Derivative No. 6, 1-(3-diethylaminopropylamino)-4,5-dimethyl-8-methoxy-5H-pyrido[4,3-b]indole]
IC50 [1]: 0.1 µM

Cc1cnc(NCC(C)CN(C)C)c2c3cc(O)ccc3n(C)c12 (racemic) [Derivative No. 21, 4,5-dimethyl-1-(3-dimethylamino-2-methylpropylamino)-8-hydroxy-5H-pyrido[4,3-b]dihydrochloride]
IC50 [1]: 0.01 µM

O=P1(N(CCCl)CCCl)NCCCO1 (stereo not drawn) [Cyclopnospnamide, cyclophosphamide, reference compound]
Median day of survival [2]: > 60 days and 57.0 days
Number of survivors ([2]; day D75): 9/10 and 0/10
T/C % ([2]; survival time): > 239% and 219% and > 234%

O=c1[nH]cc(F)c(=O)[nH]1 [5-Fluorouracile, 5-fluorouracile, reference compound]
Median day of survival [3]: 16.0 days
Variation by weight [3]: -0.5 g
Number of survivors ([3]; day D60): 0/10
T/C % ([3]; survival time): 182%
Median day of survival [4]: 19.0 days
Variation by weight [4]: -3.2 g
Number of survivors ([4]; day D30): 0/10
T/C % ([4]; survival time): 173%
Median day of survival ([5]; 20 mg/kg IP): 20.1 days and 18.9 days and 19 days and 17.75 days and 16.7 days and 18.8 days and 20 days and 17 days
Number of survivors ([5]; 20 mg/kg IP): 0/10
T/C % ([5]; 20 mg/kg IP): 166% and 164% and 168% and 160% and 147% and 173% and 171% and 154%

Cc1cnc(NCCCN(C)C)c2c3ccccc3n(C)c12.Cl.Cl [Derivative No. 17, 4,5-dimethyl 1-(3-dimethylaminopropylamino)-5H-pyrido[4,3-b]indole dihydrochloride]
IC50 [1]: 0.35 µM
Median day of survival ([5]; 24 mg/kg IP): 15.4 days
Variation by weight ([5]; 24 mg/kg IP): 0.0 g
Number of survivors ([5]; 24 mg/kg IP): 0/10
T/C % ([5]; 24 mg/kg IP): 131%

CCN(CC)CCCNc1ncc(C)c2c1c1ccccc1n2C [Derivative No. 16, 1-(3-diethylaminopropylamino)-4,5-dimethyl-5H-pyrido[4,3-b]indole dihydrochloride]
IC50 [1]: 0.72 µM

CCN(CC)CCCNc1ncc(C)c2[nH]c3ccccc3c12 [Derivative 1]
IC50 [1]: 0.2 µM

COc1ccc2c(c1)c1c(NCCCN(C)C)ncc(C)c1n2C.Cl.Cl [Derivative No. 13, 4,5-dimethyl-1-(3-dimethylaminopropylamino)-8-methoxy-5H-pyrido[4,3-b]indole dihydrochloride]
IC50 [1]: 0.13 µM
Median day of survival ([5]; 5 mg/kg IP): 14.1 days
Variation by weight (g) ([5]; 5 mg/kg IP): +1.0 g
Number of survivors ([5]; 5 mg/kg IP): 0/10
T/C % ([5]; 5 mg/kg IP): 134%
Median day of survival ([5]; 10 mg/kg IP): 16.8 days
Variation by weight (g) ([5]; 10 mg/kg IP): +1.2 g
Number of survivors ([5]; 10 mg/kg IP): 0/10
T/C % ([5]; 10 mg/kg IP): 160%
Median day of survival ([5]; 20 mg/kg IP): 15.8 days
Variation by weight (g) ([5]; 20 mg/kg IP): +0.4 g
Number of survivors ([5]; 20 mg/kg IP): 0/10
T/C % ([5]; 20 mg/kg IP): 150%
Median day of survival ([5]; 40 mg/kg IP): 8.4 days
Variation by weight ([5]; 40 mg/kg IP): -2.5 g
Number of survivors ([5]; 40 mg/kg IP): 0/10
T/C % ([5]; 40 mg/kg IP): 80%

CCN(CC)CCNc1ncc(C)c2c1c1cc(OC)ccc1n2C [Derivative No. 18, 1-(2-diethylaminoethylamino)-4,5-dimethyl-8-methoxy-5H-pyrido[4,3-b]indole dihydrochloride]
IC50 [1]: 1.2 µM

CCNCCCNc1ncc(C)c2[nH]c3ccc(OC)cc3c12 [Derivative No. 5, 1-(3-ethylaminopropylamino)-8-methoxy-4-methyl-5H-pyrido[4,3-b]indole]
IC50 [1]: 1.2 µM

CCN(CC)CCCCNc1ncc(C)c2c1c1cc(OC)ccc1n2C [Derivative No. 22, 1-(4-diethylaminobutylamino)-4,5-dimethyl-8-methoxy-5H-pyrido[4,3-b]indoledihydrochloride]
IC50 [1]: 1.3 µM

CCN(CC)CCCCNc1ncc(C)c2c1c1cc(O)ccc1n2C [Derivative No. 23, 1-(4-diethylaminobutylamino)-4,5-dimethyl-8-hydroxy-5H-pyrido[4,3-b]indoledihydrochloride]
IC50 [1]: 0.31 µM

Cc1cnc(NCCCN(C)C)c2c1[nH]c1ccccc12 [Derivative No. 2, 1-(3-dimethylaminopropylamino)-4-methyl-5H-pyrido-[4,3-b]indole]
IC50 [1]: 0.16 µM

Cc1cnc(NCCNCCO)c2c1[nH]c1ccccc12 [Derivative 3]
IC50 [1]: 1.14 µM

[NH2][Pt]([NH2])([Cl])[Cl] [Cis-Platine, reference compound]
Median day of survival [6]: 36 days and 30.0 days and 38.75 days
Variation by weight [6]: -0.6 g
Number of survivors ([6]; day D60): 0/10
T/C % ([6]; survival time): 131% and 126% and 141%

COc1ccc2c(c1)c1c(NCC(C)CN(C)C)ncc(C)c1n2C (racemic) [Derivative No. 20, 4,5-dimethyl-1-(3-dimethylamino-2-methylpropylamino)-8-methoxy-5pyrido[4,3-b]i dihydrochloride]
IC50 [1]: 1 µM
